# From patent US9833497B2, “Human originated EGF domain proteins and use of the same” (CHENGDU SOURCEBIO LIMITED-LIABILITY COMPANY, priority 2013, dated 2017)
# Legend:
# Format in all cases: cell-based
# [1] = tested on: Enterobacter cloacae; test: MIC against Gram-negative bacteria: Enterobacter cloacae; details: 5×10^5 CFU/mL
# How it was run: (§1)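 Bacteria grown in LB at 37° C with shaking to McFarland 0.5, pelleted and resuspended in fresh LB, then seeded at 5×10^5 CFU/mL per well. Purified recombinant human EGF domain proteins were two-fold serially diluted in triplicate and plates shaken at 37° C, 175 rpm. MIC is the lowest protein concentration with no bacterial growth.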
# [2] = tested on: Klebsiella pneumonia; test: MIC against Gram-negative bacteria: Klebsiella pneumonia; details: 5×10^5 CFU/mL
# How it was run: as §1
# [3] = tested on: Serratia marcescens; test: MIC against Gram-negative bacteria: Serratia marcescens; details: 5×10^5 CFU/mL
# How it was run: as §1
# [4] = tested on: Proteus vulgaris; test: MIC against Gram-negative bacteria: Proteus vulgaris; details: 5×10^5 CFU/mL
# How it was run: as §1
# [5] = tested on: Moraxella catarrhalis; test: MIC against Gram-negative bacteria: Moraxella catarrhalis; details: 5×10^5 CFU/mL
# How it was run: as §1
# [6] = tested on: Pseudomonas aeruginosa; test: MIC against Gram-negative bacteria: Pseudomonas aeruginosa; details: 5×10^5 CFU/mL
# How it was run: as §1
# [7] = tested on: E. coli BL21; test: MIC against Gram-negative bacteria: E. coli BL21; details: 5×10^5 CFU/mL
# How it was run: as §1
# [8] = tested on: Proteus mirabilis; test: MIC against Gram-negative bacteria: Proteus mirabilis; details: 5×10^5 CFU/mL
# How it was run: as §1
# [9] = tested on: Aeromonas hydrophila; test: MIC against Gram-negative bacteria: Aeromonas hydrophila; details: 5×10^5 CFU/mL
# How it was run: as §1
# [10] = tested on: E. coli DH5α; test: Antibacterial activity: MIC and growth curve against E. coli DH5α in 96-well plate; details: minimal inhibitory concentration against E. coli DH5α; 96-well plate, 5×10^5 CFU/mL, 37° C., judged after 8 h
# How it was run: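 Log-phase bacteria (OD600 ~0.5) resuspended in LB at 5×10^5 CFU/mL, exposed to recombinant protein at 50, 25, 12.5 μg/mL final in triplicate, 37 °C shaking at 175 rpm. OD600 read every 30 min; MIC is lowest concentration showing no growth.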
# [11] = tested on: Citrobacter diversus; test: MIC against Gram-negative bacteria: Citrobacter diversus; details: 5×10^5 CFU/mL
# How it was run: as §1
# [12] = Enterobacter cloacae, 96-well plate, 37° C., 10 h
# [13] = Klebsiella pneumonia, 96-well plate, 37° C., 10 h
# [14] = Serratia marcescens, 96-well plate, 37° C., 10 h
# [15] = Proteus vulgaris, 96-well plate, 37° C., 10 h
# [16] = Moraxella catarrhalis, 96-well plate, 37° C., 10 h
# [17] = Pseudomonas aeruginosa, 96-well plate, 37° C., 10 h
# [18] = E. coli BL21, 96-well plate, 37° C., 10 h
# [19] = Proteus mirabilis, 96-well plate, 37° C., 10 h
# [20] = Aeromonas hydrophila, 96-well plate, 37° C., 10 h
# [21] = Citrobacter diversus, 96-well plate, 37° C., 10 h
# [22] = Enterobacter cloacae, 10 h cultivation at 37° C.
# [23] = Klebsiella pneumonia, 10 h cultivation at 37° C.
# [24] = Serratia marcescens, 10 h cultivation at 37° C.
# [25] = Proteus vulgaris, 10 h cultivation at 37° C.
# [26] = Moraxella catarrhalis, 10 h cultivation at 37° C.
# [27] = Pseudomonas aeruginosa, 10 h cultivation at 37° C.
# [28] = E. coli BL21, 10 h cultivation at 37° C.
# [29] = Proteus mirabilis, 10 h cultivation at 37° C.
# [30] = Aeromonas hydrophila, 10 h cultivation at 37° C.
# [31] = Citrobacter diversus, 10 h cultivation at 37° C.
substance,measurement,setting,value
PRT1312 (LQPVCTPPCAPEAVCRAGNSCECSLGYEGDGRVCT; listed as Homo sapiens),MIC against E. cloacae,[1]; [12],50 µg/mL
same,MIC against K. pneumonia,[2]; [13],12.5 µg/mL
same,MIC against S. marcescens,[3]; [14],50 µg/mL
same,MIC against P. vulgaris,[4]; [15],12.5 µg/mL
same,MIC against M. catarrhalis,[5]; [16],12.5 µg/mL
same,MIC against P. aeruginosa,[6]; [17],50 µg/mL
same,MIC against E. coli BL21,[7]; [18],12.5 µg/mL
same,MIC against P. mirabilis,[8]; [19],50 µg/mL
same,MIC against A. hydrophila,[9]; [20],12.5 µg/mL
same,MIC,[10],50 µg/mL
same,MIC against C. diversus,[11]; [21],50 µg/mL
PRT723 (KERTCAENICEQNCTQLNEGGFICSCTAGFETNVFDRTSCL; listed as Homo sapiens),MIC E. cloacae,"[1]; 96-well plate, 37° C., 10 h",50 µg/mL
same,MIC K. pneumonia,"[2]; 96-well plate, 37° C., 10 h",100 µg/mL
same,MIC S. marcescens,"[3]; 96-well plate, 37° C., 10 h",12.5 µg/mL
same,MIC P. vulgaris,"[4]; 96-well plate, 37° C., 10 h",25 µg/mL
same,MIC M. catarrhalis,"[5]; 96-well plate, 37° C., 10 h",12.5 µg/mL
same,MIC P. aeruginosa,"[6]; 96-well plate, 37° C., 10 h",100 µg/mL
same,MIC E. coli BL21,"[7]; 96-well plate, 37° C., 10 h",50 µg/mL
same,MIC P. mirabilis,"[8]; 96-well plate, 37° C., 10 h",25 µg/mL
same,MIC A. hydrophila,"[9]; 96-well plate, 37° C., 10 h",12.5 µg/mL
same,MIC,[10],25 µg/mL
same,MIC C. diversus,"[11]; 96-well plate, 37° C., 10 h",25 µg/mL
PRT1411 (SVDNCPSNCYGNGDCISGTCHCFLGFLGPDCG; listed as Homo sapiens),MIC against E. cloacae,[1]; [22],12.5 µg/mL
same,MIC against K. pneumonia,[2]; [23],25 µg/mL
same,MIC against S. marcescens,[3]; [24],12.5 µg/mL
same,MIC against P. vulgaris,[4]; [25],25 µg/mL
same,MIC against M. catarrhalis,[5]; [26],12.5 µg/mL
same,MIC against P. aeruginosa,[6]; [27],12.5 µg/mL
same,MIC against E. coli BL21,[7]; [28],25 µg/mL
same,MIC against P. mirabilis,[8]; [29],12.5 µg/mL
same,MIC against A. hydrophila,[9]; [30],12.5 µg/mL
same,MIC,[10],12.5 µg/mL
same,MIC against C. diversus,[11]; [31],12.5 µg/mL
PRT455 (DVNECSQENGGCLQICHNKPGSFHCSCHSGFELSSDGRTCQ; listed as Homo sapiens),MIC against E. cloacae,"[1]; 96-well plate, 37° C., 10 h",50 µg/mL
same,MIC against K. pneumonia,"[2]; 96-well plate, 37° C., 10 h",12.5 µg/mL
same,MIC against S. marcescens,"[3]; 96-well plate, 37° C., 10 h",50 µg/mL
same,MIC against P. vulgaris,"[4]; 96-well plate, 37° C., 10 h",100 µg/mL
same,MIC against M. catarrhalis,"[5]; 96-well plate, 37° C., 10 h",12.5 µg/mL
same,MIC against P. aeruginosa,"[6]; 96-well plate, 37° C., 10 h",50 µg/mL
same,MIC against E. coli BL21,"[7]; 96-well plate, 37° C., 10 h",12.5 µg/mL
same,MIC against P. mirabilis,"[8]; 96-well plate, 37° C., 10 h",50 µg/mL
same,MIC against A. hydrophila,"[9]; 96-well plate, 37° C., 10 h",12.5 µg/mL
same,MIC,[10],50 µg/mL
same,MIC against C. diversus,"[11]; 96-well plate, 37° C., 10 h",50 µg/mL
PRT135 (PGHCSSYGSICHNGGKCVEKHNGYLCDCTNSPYEGPFCK; listed as Homo sapiens),MIC (μg/mL) E. cloacae,[1]; [12],25 µg/mL
same,MIC (μg/mL) K. pneumonia,[2]; [13],12.5 µg/mL
same,MIC (μg/mL) S. marcescens,[3]; [14],50 µg/mL
same,MIC (μg/mL) P. vulgaris,[4]; [15],12.5 µg/mL
same,MIC (μg/mL) M. catarrhalis,[5]; [16],50 µg/mL
same,MIC (μg/mL) P. aeruginosa,[6]; [17],25 µg/mL
same,MIC (μg/mL) E. coli BL21,[7]; [18],12.5 µg/mL
same,MIC (μg/mL) P. mirabilis,[8]; [19],25 µg/mL
same,MIC (μg/mL) A. hydrophila,[9]; [20],12.5 µg/mL
same,MIC,[10],25 µg/mL
same,MIC (μg/mL) C. diversus,[11]; [21],25 µg/mL
PRT489 (CDNGGTWEQGQCACLPGFSGDRCQLQTRCQNG; listed as Homo sapiens),MIC against E. cloacae,"[1]; 96-well plate, 37° C., 10 h",12.5 µg/mL
same,MIC against K. pneumonia,"[2]; 96-well plate, 37° C., 10 h",25 µg/mL
same,MIC against S. marcescens,"[3]; 96-well plate, 37° C., 10 h",12.5 µg/mL
same,MIC against P. vulgaris,"[4]; 96-well plate, 37° C., 10 h",25 µg/mL
same,MIC against M. catarrhalis,"[5]; 96-well plate, 37° C., 10 h",25 µg/mL
same,MIC against P. aeruginosa,"[6]; 96-well plate, 37° C., 10 h",12.5 µg/mL
same,MIC against E. coli BL21,"[7]; 96-well plate, 37° C., 10 h",12.5 µg/mL
same,MIC against P. mirabilis,"[8]; 96-well plate, 37° C., 10 h",50 µg/mL
same,MIC against A. hydrophila,"[9]; 96-well plate, 37° C., 10 h",25 µg/mL
same,MIC,[10],12.5 µg/mL
same,MIC against C. diversus,"[11]; 96-well plate, 37° C., 10 h",12.5 µg/mL
PRT147 (DINECEINNGGCSVAPPVECVNTPGSSHCQACPPGYQGDGRVCT; listed as Homo sapiens),MIC (μg/mL) E. cloacae,"[1]; E. cloacae, 10 h cultivation at 37° C.",12.5 µg/mL
same,MIC (μg/mL) K. pneumonia,"[2]; K. pneumonia, 10 h cultivation at 37° C.",12.5 µg/mL
same,MIC (μg/mL) S. marcescens,"[3]; S. marcescens, 10 h cultivation at 37° C.",12.5 µg/mL
same,MIC (μg/mL) P. vulgaris,"[4]; P. vulgaris, 10 h cultivation at 37° C.",25 µg/mL
same,MIC (μg/mL) M. catarrhalis,"[5]; M. catarrhalis, 10 h cultivation at 37° C.",12.5 µg/mL
same,MIC (μg/mL) P. aeruginosa,"[6]; P. aeruginosa, 10 h cultivation at 37° C.",12.5 µg/mL
same,MIC (μg/mL) E. coli BL21,[7]; [28],12.5 µg/mL
same,MIC (μg/mL) P. mirabilis,"[8]; P. mirabilis, 10 h cultivation at 37° C.",12.5 µg/mL
same,MIC (μg/mL) A. hydrophila,"[9]; A. hydrophila, 10 h cultivation at 37° C.",12.5 µg/mL
same,MIC,[10],12.5 µg/mL
same,MIC (μg/mL) C. diversus,"[11]; C. diversus, 10 h cultivation at 37° C.",12.5 µg/mL
PRT1293 (KLDFCAQDLNPCQHDSKCILTPKGFKCDCTPGYVGEHCD; listed as Homo sapiens),MIC against E. cloacae,[1]; [12],12.5 µg/mL
same,MIC against K. pneumonia,[2]; [13],50 µg/mL
same,MIC against S. marcescens,[3]; [14],12.5 µg/mL
same,MIC against P. vulgaris,[4]; [15],50 µg/mL
same,MIC against M. catarrhalis,[5]; [16],12.5 µg/mL
same,MIC against P. aeruginosa,[6]; [17],25 µg/mL
same,MIC against E. coli BL21,[7]; [18],12.5 µg/mL
same,MIC against P. mirabilis,[8]; [19],12.5 µg/mL
same,MIC against A. hydrophila,[9]; [20],50 µg/mL
same,MIC,[10],25 µg/mL
same,MIC against C. diversus,[11]; [21],12.5 µg/mL
PRT1454 (DVNECFYEELNACSGRELCANLEGSYWCVCHQEAPATSPRKLNLEWEDCP; listed as Homo sapiens),MIC against E. cloacae,[1]; [22],50 µg/mL
same,MIC against K. pneumonia,[2]; [23],25 µg/mL
same,MIC against S. marcescens,[3]; [24],50 µg/mL
same,MIC against P. vulgaris,[4]; [25],25 µg/mL
same,MIC against M. catarrhalis,[5]; [26],50 µg/mL
same,MIC against P. aeruginosa,[6]; [27],12.5 µg/mL
same,MIC against E. coli BL21,[7]; [28],12.5 µg/mL
same,MIC against P. mirabilis,[8]; [29],12.5 µg/mL
same,MIC against A. hydrophila,[9]; [30],25 µg/mL
same,MIC,[10],25 µg/mL
same,MIC against C. diversus,[11]; [31],12.5 µg/mL
PRT614 (CNCNLYGTMKQQSSCNPVTGQCECLPHVTGQDCGACDPGFYNLQSGQGCER; listed as Homo sapiens),MIC E. cloacae,"[1]; 96-well plate, 37° C., 10 h",12.5 µg/mL
same,MIC K. pneumonia,"[2]; 96-well plate, 37° C., 10 h",50 µg/mL
same,MIC S. marcescens,"[3]; 96-well plate, 37° C., 10 h",25 µg/mL
same,MIC P. vulgaris,"[4]; 96-well plate, 37° C., 10 h",12.5 µg/mL
same,MIC M. catarrhalis,"[5]; 96-well plate, 37° C., 10 h",12.5 µg/mL
same,MIC P. aeruginosa,"[6]; 96-well plate, 37° C., 10 h",50 µg/mL
same,MIC E. coli BL21,"[7]; 96-well plate, 37° C., 10 h",50 µg/mL
same,MIC P. mirabilis,"[8]; 96-well plate, 37° C., 10 h",25 µg/mL
same,MIC A. hydrophila,"[9]; 96-well plate, 37° C., 10 h",12.5 µg/mL
same,MIC,[10],50 µg/mL
same,MIC C. diversus,"[11]; 96-well plate, 37° C., 10 h",25 µg/mL
